Consider 12 compounds from US5081242A, “6-benzoxazinyl- and 6-benzothiazinyl 2,3,4,5-tetrahydropyridazin-3-ones” (Ortho Pharmaceutical Corporation, priority 1991, dated 1992).

The subject of one assay is adult mongrel dogs. In words: Cardiotonic activity in anesthetized dogs (myocardial contractile force, i.v.). It counts as in vivo. The conditions noted are these: Canis lupus familiaris, iv, vs pretreatment control, read-out: CF: Percent increase in cardiac force; for change in vivo at 0.47 mg/kg: i.v. dose 0.47 mpk; for change in vivo at 0.075 mg/kg: i.v. dose 0.075 mpk. As to the method: The cardiotonic activity of the compounds was determined in accordance with the method of Alousi, A. A., et al., J. Cir. Res. 45, 666 (1979). Basically, adult mongrel dogs were anesthetized with sodium pentobarbital and artificially respired. Arterial pressure was recorded via a femoral artery and the pressure pulse used to trigger a cardiotachometer for heart rate. Left ventricular pressure was measured with a Millar catheter and dP/dt was derived. Cardiac output was determined by measuring ascending aortic blood flow with an electromagnetic flow probe and myocardial contractile force was measured with a Walton Brodie strain gauge sutured to the right ventricle. Lead II EKG was also recorded. A standard does of dopamine was administered to assess myocardial responsiveness. Test compounds were administered by i.v. infusion or bolus administration and the effects on cardiovascular parameters were determined. Dose-related effects of the test compound on BP, HR, dP/dt max., C.F. and C.O. were compared to pretreatment control values and expressed as a percentage change.

Assay [1] concerns the target cyclic nucleotide phosphodiesterase. In words: Phosphodiesterase inhibitory activity (cyclic AMP hydrolysis). The assay is classed as biochemical. The settings on record: read-out: IC50 (50% inhibition of cyclic nucleotide phosphodiesterase activity); cyclic AMP 0.10-1.0 μM, pH 7.4.

As usually defined, the IC50 is the concentration that gives 50% inhibition. `CC1CC(=O)NN=C1c1ccc2c(c1)N(C)C(=O)C(C)O2` (stereo not drawn) [Example 27, 6-(3,4-Dihydro-2,4-dimethyl-3-oxo-1,4(2H)-benzoxazin-6-yl)-2,3,4,5-tetrahydro-5-methylpyridazin-3-one]: the change in vivo at 0.47 mg/kg in the assay with adult mongrel dogs amounted to 117%. Also, the IC50 in assay [1] stood at 6 µM.
In the same order, the values of `Cc1cc2c(cc1C1=NNC(=O)CC1)NC(=O)CO2` [Example 28, 6-(3,4-Dihydro-7-methyl-3-oxo-1,4(2H)-benzoxazin-6-yl)-2,3,4,5-tetrahydropyridazin-3-one] are 46% and 15 µM.
In the same order, the values of `Cc1cc2c(cc1C1=NNC(=O)CC1)N(C)C(=O)CO2` [Example 29, 6-(3,4-Dihydro-4,7-dimethyl-3-oxo-1,4(2H)-benzoxazin-6-yl)-2,3,4,5-tetrahydropyridazin-3-one] are 12% and 56 µM.
In the same order, the values of `CC1CC(=O)NN=C1c1ccc2c(c1)N(C(C)C)C(=O)C(C)O2` (stereo not drawn) [Example 36, 6-(3,4-Dihydro-2-methyl-4-(1-methylethyl)-3-oxo-1,4(2H)-benzoxazin-6-yl)-2,3,4,5-tetrahydro-5-methylpyridazin-3-one] are 40% and 24 µM.
Regarding `CC1CC(=O)NN=C1c1ccc2c(c1)N(C1CCCC1)C(=O)C(C)O2` (stereo not drawn) [Example 37, 6-(3,4-Dihydro-4-cyclopentyl-2-methyl-3-oxo-1,4(2H)-benzoxazin-6-yl)-2,3,4,5-tetrahydro-5-methylpyridazin-3-one], the change in vivo at 0.47 mg/kg with adult mongrel dogs turned out to be 4%. Also, the IC50 in assay [1] stood at 8 µM.
The matching figures for `Cc1cc2c(c(C3=NNC(=O)CC3)c1)OCC(=O)N2` [Example 38, 6-(3,4-Dihydro-6-methyl-3-oxo-1,4(2H)-benzoxazin-8-yl)-2,3,4,5-tetrahydropyridazin-3-one]: 24% and 31 µM.
The matching figures for `Cc1cc(C2=NNC(=O)CC2)c2c(c1)N(C)C(=O)CO2` [Example 39, 6-(3,4-Dihydro-4,6-dimethyl-3-oxo-1,4(2H)-benzoxazin-8-yl)-2,3,4,5-tetrahydropyridazin-3-one]: 18% and 28 µM.
The matching figures for `Cc1cc2c(c(C3=NNC(=O)CC3C)c1)OCC(=O)N2` (stereo not drawn) [Example 40, 6-(3,4-Dihydro-6-methyl-3-oxo-1,4(2H)-benzoxazin-8-yl)-2,3,4,5-tetrahydro-5-methylpyridazin-3-one]: 22% and 26 µM.
Regarding `Cc1cc(C2=NNC(=O)CC2C)c2c(c1)N(C)C(=O)CO2` (stereo not drawn) [Example 41, 6-(3,4-Dihydro-4,6-dimethyl-3-oxo-1,4(2H)-benzoxazin-8-yl)-2,3,4,5-tetrahydro-5-methylpyridan-3-one], in the assay on adult mongrel dogs, the change in vivo at 0.47 mg/kg amounted to 60%. In addition, in assay [1], the IC50 came out at 7 µM.
The matching figures for `Cc1cc2c(cc1C1=NNC(=O)CC1)OCC(=O)N2C` [Example 43, 6-(3,4-Dihydro-4,6-dimethyl-3-oxo-1,4(2H)-benzoxazin-7-yl)-2,3,4,5-tetrahydropyridazin-3-one]: 104% and 35 µM.
In the case of `O=C1CCC(c2ccc3c(c2)NC(=O)CS3)=NN1` [Example 53, 6-(3,4-Dihydro-3-oxo-1,4[2H]-benzothiazin-6-yl)-2,3,4,5-tetrahydropyridazin-3-one], the change in vivo at 0.075 mg/kg with adult mongrel dogs turned out to be 21%. The IC50 in assay [1] came out at 25 µM.
In the same order, the values of `CN1C(=O)CSc2ccc(C3=NNC(=O)CC3)cc21` [Example 54, 6-(3,4-Dihydro-4-methyl-3-oxo-1,4[2H]-benzothiazin-6-yl)-2,3,4,5-tetrahydropyridazin-3-one] are 11% and 22 µM.
